In PMC8000974, “Tumor Activated Cell Penetrating Peptides to Selectively Deliver Immune Modulatory Drugs” (Pharmaceutics, 2021):

What was measured:
B16F10 melanoma tumors [1] = assay: In vivo murine therapy experiments; set-up: species or system mice; details: for Tumor control (tumor volume) vs control untreated: day 5 and day 9, 10 tumors per group
Experimental: Female six-week-old C57Bl6 albino mice were injected with 50,000 B16F10 melanoma cells subcutaneously in both thighs using a 1:1 mixture of PBS:Matrigel. The tumors were palpable five days after implant at which point treatment was initiated. Due to the rapid growth of B16F10 tumor in mice, dosing began when tumors reached an average size of 30 ± 13 mm^3. Animals were divided into four treatment groups: control, intratumoral (i.t.) resiquimod (30 nmoles per tumor), i.t. ACPP-resiquimod (30 nmoles per tumor), or i.v. ACPP-resiquimod (60 nmoles per mouse). Mice were given free drug or ACPP conjugated on day 5 and day 9. Each treatment group had five mice with 10 tumors. Tumor volumes were measured bi-weekly and mice weighed weekly. Mice were sacrificed when the tumor size reached 1500 mm^3.

B16F10 melanoma cells = assay: Cell culture Cy5 imaging of peptide uptake; assay type: cell-based; details: murine B16 cells, 1 μM peptide in 1% FBS, 2 h at room temperature then 2 h in media, fixed
Experimental: (§1) Murine B16F10 melanoma and LL2 Lewis lung carcinoma cell lines were purchased from ATCC. MC38 colon adenocarcinoma cell line was purchased from Kerafast (Boston, MA, USA). Cell lines were grown in Dulbecco’s modified eagle’s medium (DMEM) + 10% fetal bovine serum (FBS) media. All cell lines were maintained at low passage and routinely tested for mycoplasma. For Cy5 imaging, cells were resuspended and incubated with Cy5 labeled r9 or ACPP at 1 μM in 1% FBS. The cells were incubated for 2 h under rotation and covered to be protected from light at room temperature. Cells were then spun down (5 min at 2000 rpm) and resuspended in cell media for an additional 2 h. The cells were then fixed with 4% paraformaldehyde in phosphate buffered saline (PBS), washed twice with PBS and incubated with 4′,6-diamidino-2-phenylindole (DAPI) stain (1:500). Finally, the cells were washed with PBS and mounted on slides using Fluoromount mounting media (Sigma, St Louis, MI, USA). Cells were imaged using a Keyence microscope with a 100× oil objective and high-resolution settings.

[2] = tested on: MC38 colon adenocarcinoma cells; assay: Cell culture Cy5 imaging of peptide uptake; assay type: cell-based; details: murine MC38 cells, 1 μM peptide in 1% FBS, 2 h at room temperature then 2 h in media, fixed
Experimental: as §1

[3] = tested on: LL2 Lewis lung carcinoma cells; assay: Cell culture Cy5 imaging of peptide uptake; assay type: cell-based; details: murine LL2 cells, 1 μM peptide in 1% FBS, 2 h at room temperature then 2 h in media, fixed
Experimental: as §1

B16F10 melanoma tumors [4] = assay: Tissue drug concentration (LC-MS/MS) after i.v. ACPP-resiquimod; assay type: in vivo; details: B16F10 tumor bearing C57Bl6 albino mice, 30 nmoles ACPP-resiquimod i.v., 6 h post injection, free resiquimod by LC-MS/MS
Experimental: Female six-week-old C57Bl6 albino mice were injected with 50,000 B16F10 melanoma cells subcutaneously into both thighs using a 1:1 PBS:Matrigel. Mice were i.v. injected with 30 nmoles of ACPP-resiquimod in 100 µL sterile water and 6 h post injection mice were sacrificed. Tumor and adjacent muscle tissue were excised, weighed, and flash frozen in liquid N2. A mixture of 44 mL H2O, 44 mL acetonitrile, and 2 mL glacial acetic acid was used as the diluent. Nine times w/v of diluent was added to the frozen tissue. Tissues were dissociated on ice with a Sonic dismemberator Model 500 (Fisher Scientific) tissue probe homogenizer using 5 s pulse of 20% amplitude four to five times. The samples were spun down to obtain clear supernatant. For muscle tissue, addition passage through a 0.22 µm Nylon filter (Costar Spin X; purchased from Sigma, St Louis, MI, USA) was used to obtain clear supernatant. A fixed volume of tissue supernatant from each sample was injected on the LC-MS/MS (Agilent 1100 LC with MSD Trap XCT, Santa Clara, CA, USA). Each sample was run in duplicate on the LC-MS/MS to determine reproducibility of integrated ion current for each sample. […] Concentration of unknown samples were then calculated (Graphpad PRISM).

Compound | Tumor control (tumor volume) vs control untreated (B16F10 melanoma tumors [1]; i.t. 30 nmoles per tumor) | Mouse survival, dose response (B16F10 melanoma tumors [1]; i.t. injection, 30 nmoles compared to 10 nmoles, Log-rank (Mantel–Cox) test) | Cell uptake (Cy5 fluorescence microscopy) (B16F10 melanoma cells) | Cell uptake (Cy5 fluorescence microscopy) [2] | Cell uptake (Cy5 fluorescence microscopy) [3] | Resiquimod drug concentration in tumor tissue (B16F10 melanoma tumors [4]) [nM] | Resiquimod drug concentration in peri-tumoral muscle tissue (B16F10 melanoma tumors [4]; negative value from calibration background noise) [nM] | Antitumor efficacy compared with free resiquimod (B16F10 melanoma tumors [1]; ACPP-resiquimod i.t. or i.v. vs i.t. free resiquimod, total drug per animal constant) | Tumor control (tumor volume) vs control untreated (B16F10 melanoma tumors [1]; i.v. 60 nmoles per mouse)
CCOCc1nc2c(N)nc3ccccc3c2n1CC(C)(C)O [resiquimod, Resiquimod, reference compound] | improved tumor control | statistically improved survival | – | – | – | – | – | – | –
CCN1C(=CC=CC=CC2=[N+](CCCCCC(=O)NCCN3C(=O)CC(SC[C@@H](NC(=O)[C@@H](CCCNC(=N)N)NC(=O)[C@@H](CCCNC(=N)N)NC(=O)[C@@H](CCCNC(=N)N)NC(=O)[C@@H](CCCNC(=N)N)NC(=O)[C@@H](CCCNC(=N)N)NC(=O)[C@@H](CCCNC(=N)N)NC(=O)[C@@H](CCCNC(=N)N)NC(=O)[C@@H](CCCNC(=N)N)NC(=O)[C@H](N)CCCNC(=N)N)C(N)=O)C3=O)c3ccc(S(=O)(=O)[O-])cc3C2(C)C)C(C)(C)c2cc(S(=O)(=O)O)ccc21 (stereo partly shown) [Cy5 labeled r9] | – | – | readily taken up | readily taken up | readily taken up | – | – | – | –
cyclo(RGD)fc-MC-HN-peg8-e9-oPLGC(Me)AG-r9-c-(MC-VC-PABC-resiquimod-CONH2 [ACPP-resiquimod] | improved tumor control | – | – | – | – | 1142.3 ± 111.7 | -5.8 ± 3.5 | as efficacious as free resiquimod | improved tumor control
